Data on 21 compounds can be found in US20090143454A1, “Pyrazoline Derivatives and Their Use As Pesticides” (BAYER CROPSCIENCE AG, priority 2001, published 2009).

Holding throughout (format): in vivo
Test [1] concerns caterpillars of the diamond back moth (Plutella xylostella). Kind of test: Plutella test. The conditions noted are these: 500 ppm, cabbage leaves dipped. How it is done:
(§1) To produce a suitable preparation of active compound, 1 part by weight of active compound is mixed with the stated amounts of solvent and emulsifier, and the concentrate is diluted with emulsifier-containing water to the desired concentration.
Cabbage leaves (Brassica oleracea) are treated by being dipped into the preparation of active compound of the desired concentration and are populated with caterpillars of the diamond back moth (Plutella xylostella) while the leaves are still moist.
(§2) After the desired period of time, the kill in % is determined. 100% means that all caterpillars have been killed; 0% means that none of the caterpillars have been killed.

Test [2] deals with Heliothis virescens caterpillars. Nature of the test: Heliothis virescens test. The note with it: 500 ppm, soyabean shoots dipped. How it is done:
as §1
Soyabean shoots (Glycine max) are treated by being dipped into the preparation of active compound of the desired concentration and are populated with Heliothis virescens caterpillars while the leaves are still moist.
as §2

Test [3] has as its system caterpillars of the army worm (Spodoptera exigua). Nature of the test: Spodoptera exigua test. The conditions noted are these: 500 ppm, cabbage leaves dipped. The method, then:
as §1
Cabbage leaves (Brassica oleracea) are treated by being dipped into the preparation of active compound of the desired concentration and are populated with caterpillars of the army worm (Spodoptera exigua) while the leaves are still moist.
as §2

The subject of test [4] is adult Musca domestica, strain Reichswald (OP, SP, carbamate-resistent). Kind of test: Test with flies (Musca domestica). The note with it: 100 ppm; treated filter paper; time not given. How it is done: (§3) 20 mg of active compound are dissolved in 1 ml of dimethyl sulphoxide. More dilute concentrations are prepared by dilution with distilled water.
2 ml of the preparation of active compound are pipetted onto a filter paper dish (Ø 9.5 cm), which are placed in a Petri dish of corresponding diameter. After drying of the filter dishes 25 test animals are transferred in the Petri dishes and covered.
After 1, 3, 5, 24 and 48 hours (or after the times given in the tables below) the activity of the preparation of active compound is determined. 100% means, that all flies have been killed, 0% means, that none of the flies have been killed.

For test [5], the system named is Boophilus microplus resistent/SP-resistent Parkhurst-strain, adult sucked female. Kind of test: Test with Boophilus microplus resistent/SP-resistent Parkhurst-strain. The note with it: 100 μg animal, injected into the abdomen; oviposition of fertile eggs after 7 days. How it is done: […] More dilute concentrations are prepared by dilution with the same solvent.
The test is carried out in 5-fold determination. […] The control of activity is made after 7 days for oviposition of fertile eggs. Eggs whose fertility cannot be seen from the outside are stored in glass tubes in a climate chamber until the larvae have been hatched. An activity of 100% means, that no tick has hatched fertile eggs.

Test [6] relates to Diabrotica balteata larvae. Kind of test: Diabrotica test (larvae in soil). The note with it: 20 ppm (mg/l soil), Diabrotica balteata larvae on maize in treated soil.
The subject of test [7] is Periplaneta americana. Nature of the test: Cockroach test. The conditions noted are these: dipped 1 minute, after 7 days. How it is done:
as §3
4 test animals are dipped for 1 minute into the preparation of active compound to be tested. After transfer into a plastic beaker and storage for 7 days in an air-conditioned room the killing rate is determined. 100% means, that all cockroaches have been killed, 0% means, that none of the cockroaches have been killed.

For the compound `N#Cc1cnn(C2CN(C(=O)Nc3ccc(Cl)cc3)N=C2c2ccc(Cl)cc2)c1` (centres unmarked) [drawing 55], in test [1], the “Kill rate in % after 7 d” value was determined as 100%. The same measure, in the same setting: the same measure for `N#Cc1cnn(C2CN(C(=O)Nc3ccc(C(F)(F)F)cc3)N=C2c2ccc(Cl)cc2)c1` (centres unmarked) [drawing 54]: 100%; for `N#Cc1cnn(C2CN(C(=O)Nc3ccc(SC(F)(F)F)cc3)N=C2c2ccc(Cl)cc2)c1` (centres unmarked) [drawing 56]: 100%. Regarding `N#Cc1cnn(C2CN(C(=O)Nc3ccc(OC(F)(F)F)cc3)N=C2c2ccc(Cl)cc2)c1` (centres unmarked) [drawing 38], in test [2], the “Kill rate in % after 7 d” value is on record as 100%. With `N#Cc1cnn(C2CN(C(=O)Nc3ccc(SC(F)(F)F)cc3)N=C2c2ccc(Cl)cc2)c1` (centres unmarked) [drawing 60], in test [3], the “Kill rate in % after 7 d” value amounted to 100%.

Take `N#Cc1cnn(C2CN(C(=O)Nc3ccc(OC(F)(F)F)cc3)N=C2c2ccc(Br)cc2)c1` (centres unmarked) [drawing 95]: in test [4], the “activity/kill rate in %” value is reported as 75%. As for `N#Cc1cnn(C2CN(C(=O)Nc3ccc(S(=O)(=O)C(F)(F)F)cc3)N=C2c2ccc(Br)cc2)c1` (centres unmarked) [drawing 91], the “activity/kill rate in %” value in test [5] came to 100%. Take `N#Cc1cnn(C2CN(C(=O)Nc3ccc(OC(F)(F)F)cc3)N=C2c2ccc(Cl)cc2)c1` (centres unmarked) [drawing 93]: the “activity/kill rate in %” value in test [4] was found to be 30%.

Regarding `N#Cc1cnn(C2CN(C(=O)Nc3ccc(C(F)(F)F)cc3)N=C2c2ccc(Cl)cc2)c1` (centres unmarked) [drawing 94], the “activity/kill rate in %” value in test [4] amounted to 30%. `N#Cc1cnn(C2CN(C(=O)Nc3ccc(SC(F)(F)F)cc3)N=C2c2ccc(Cl)cc2)c1` (centres unmarked) [drawing 41]: the “Kill rate in % after 7 d” value in test [2] was determined as 100%. The same measure, in the same setting: the same measure for `N#Cc1cnn(C2CN(C(=O)Nc3ccc(C(F)(F)F)cc3)N=C2c2ccc(Cl)cc2)c1` (centres unmarked) [drawing 39]: 100%. The same measure, in the same setting: the same measure for `N#Cc1cnn(C2CN(C(=O)Nc3ccc(Cl)cc3)N=C2c2ccc(Cl)cc2)c1` (centres unmarked) [drawing 40]: 100%. On to `N#Cc1cnn(C2CN(C(=O)Nc3ccc(SC(F)(F)F)cc3)N=C2c2ccc(Cl)cc2)c1` (centres unmarked) [drawing 37], for which the “Kill rate in % after 10 d” value in test [6] is 100%. With `N#Cc1cnn(C2CN(C(=O)Nc3ccc(C(F)(F)F)cc3)N=C2c2ccc(Cl)cc2)c1` (centres unmarked) [drawing 59], the “Kill rate in % after 7 d” value in test [3] turned out to be 100%. Same read-out and setting: the value for `N#Cc1cnn(C2CN(C(=O)Nc3ccc(OC(F)(F)F)cc3)N=C2c2ccc(Cl)cc2)c1` (centres unmarked) [drawing 58] was 100%. As for `N#Cc1cnn(C2CN(C(=O)Nc3ccc(OC(F)(F)F)cc3)N=C2c2ccc(Br)cc2)c1` (centres unmarked) [drawing 101], the “activity/kill rate in %” value in test [7] (100 ppm) turned out to be 25%. Take `CCOC(=O)N(C(=O)N1CC(n2cc(C#N)cn2)C(c2ccc(Cl)cc2)=N1)c1ccc(OC(F)(F)F)cc1` (centres unmarked) [drawing 100]: the “activity/kill rate in %” value in test [7] (20 ppm) was 25%; in test [7] (100 ppm), 75%. Regarding `N#CCN(C(=O)N1CC(n2cc(C#N)cn2)C(c2ccc(Cl)cc2)=N1)c1ccc(OC(F)(F)F)cc1` (centres unmarked) [drawing 92], the “activity/kill rate in %” value in test [5] is reported as 100%. For the compound `N#Cc1cnn(C2CN(C(=O)Nc3ccc(OC(F)(F)F)cc3)N=C2c2ccc(Cl)cc2)c1` (centres unmarked) [drawing 53], the “Kill rate in % after 7 d” value in test [1] amounted to 100%. Take `COC(=O)N(C(=O)N1CC(n2cc(C#N)cn2)C(c2ccc(Cl)cc2)=N1)c1ccc(OC(F)(F)F)cc1` (centres unmarked) [drawing 99]: the “activity/kill rate in %” value in test [7] (20 ppm) was 25%; in test [7] (100 ppm), 100%.

As to `N#CCN(C(=O)N1CC(n2cc(C#N)cn2)C(c2ccc(Cl)cc2)=N1)c1ccc(OC(F)(F)F)cc1` (centres unmarked) [drawing 96], in test [4], the “activity/kill rate in %” value came out at 60%.
